Results: US20030199671A1, “Binding molecules for Fc-region polypeptides” (priority 2001, published 2003)
One block for each compound: values may come before it. Positions of bridges follow the written chain, without caps; N, C: chain ends. Residues, ends and D or L forms follow the SMILES beside them.

Columns and labels:
human IgG1 = target: T1, human IgG1 (Homo sapiens, UniProt P01857); test: Column capture from conditioned CHO cell culture supernatant containing 5% fetal bovine serum; type: binding; conditions: SEC-HPLC; load 93% monomer
T1 construct: all human subtypes derived from myeloma patients; purchased Calbiochem 400120; host or cells: myeloma patients
Description: Human IgG1 (93% monomer) was spiked into conditioned CHO media to 50 μg/ml and 5 ml (250 μg total) was loaded onto a 350 μl mini-column as described above. The column was washed to baseline with PBST, pH 7.2 and the flowthrough fraction collected. Bound IgG was eluted with 0.1M sodium bicarbonate buffer, pH 9.0, and the column cleaned with 0.1M CAPS, pH 11.5. The eluted and clean fractions were quickly neutralized to ˜pH 7.2 and assayed for mass recovery by SEC-HPLC. Thus, an 80% recovery (98% monomer) was obtained in the eluted fraction. The column load, flowtbrough, elution and cleaning fractions were further analyzed by electrophoresis (SDS-PAGE), Coomassie stain and Western analysis for the presence of human and bovine IgG.

IgG4 [1] = target: T2, IgG4 (Homo sapiens, UniProt P01861); test: Column capture of human IgG4 from goat IgG in buffer; type: binding; parameters: all human subtypes derived from myeloma patients; purchased Calbiochem 400126; host or cells: myeloma patients; conditions: SEC-HPLC; load 99.5% monomer
Description: 0.250 mg of hIgG4 (99.5% monomer) was added to 1.0 mg of goat IgG in a total volume of 1.0 ml of PBST, pH 7.2. Thus, 1.0 ml was loaded onto a 350 ul mini-column as described above. The column was washed to baseline with PBST, pH 7.2 and the flowthrough fraction collected. Bound IgG was eluted with 0.1M sodium bicarbonate buffer, pH 9.0 and the column cleaned with 0.1M CAPS, pH 11.5. The eluted and clean fractions were quickly neutralized to pH˜7.2 and assayed for mass recovery by SEC-HPLC. […] The column load, flowthrough, elution and cleaning fractions were further analyzed by electrophoresis (SDS-PAGE), Coomassie stain.

hIgG1 = target: T3, hIgG1 (Homo sapiens, UniProt P01857); test: Mini-chromatography column binding (dynamic conditions); conditions: 350 μl column, human IgG1 spiked into PBST, pH 7.2
T3 construct: purchased Calbiochem 400120; host or cells: human myeloma patients
Description: Thus, 250 μg of target (hIgG1, hIgG2, hIgG3, hIgG4, goat IgG and bovine IgG) at 0.250 mg/ml in PBST, pH 7.2 or TBST, pH 7.3 was loaded onto a 350 μl column (3×50 mm) run at 0.200 ml/min. flowrate (170 cm/hr). Flowthrough, elution and cleaning fractions were collected and assayed for total protein recovery by size-exclusion HPLC. Percentage mass balance was also determined to be 90-100% on average.
For these experiments, 350 μl columns (3×50 mm) were packed with each media. The columns were tested with human Fc fragments or human IgG1 (Calbiochem, 401104 and 400120 respectively) spiked into PBST, pH 7.2 at a concentration of 0.5 g/l. 65 μg of Fc was loaded onto each column. After loading, the columns were washed with PBST, pH 7.2, eluted with 30 mM H3PO4, 150 mM NaCl, pH 2.0 and cleaned with 0.1M CAPS, pH 11.5 buffer (3-[Cyclohexylamino]-1-propane-sulfonic acid). Fractions collected were immediately neutralized to pH ˜7.2 with 2.0 M Tris, pH 8.0. All column operations were conducted at 200 μl/min (170 cm/hr).

IgG4 [2] = target: T2, IgG4; test: Competition between synthetic peptides and Protein A for Fc binding; parameters: the individual human plasma IgG isoforms: IgG1, IgG2, IgG3, or IgG4; purchased Calbiochem; host or cells: human plasma; key: NB: no detected binding.; ?: partial decrease in anisotropy with added competitor; conditions: 5 mg/ml protein A
Description: Cross-competition studies between peptides were performed using 20 nM fluorescein-labeled peptide and 1-2 μM IgG1, IgG2, IgG3, or IgG4 in the presence and absence of a maximum of 100 μM unlabeled peptide or 5 mg/ml protein A.
This is consistent with the fact that Protein A is known not to bind human IgG3.

polyclonal human IgG = test: DX253 column re-use: total dynamic binding capacity
Description: DX253 peptide was immobilized onto NHS-activated 4 Fast Flow to a ligand density of 2.9 μmole/ml as determined by quantitative amino acid analysis. This affinity resin was packed into a 4.6 mm×6 cm (internal diam.×length, 1.0 ml bed volume) PEEK column (Isolation Technologies, Inc., 5050IP-08046-006-20).
To establish total dynamic binding capacity, polyclonal human IgG (ICN, 55908) was prepared in PBS, pH 7.2 containing 0.05% NaN3 at 2.5 mg/ml. A total of 75 mg (30 ml) was loaded at 0.21 ml/minute (75 cm/hr) to capacity (until the absorbance at 280 nm of the load was equivalent to that of the column flowthrough). Fractions were collected across the entire run. Unbound IgG was washed to baseline at 0.42 ml/minute (150 cm/hour) with PBS, pH 7.2. Bound IgG was eluted with 0.1M citrate, pH 3.0 buffer and immediately neutralized with minimal addition of 1M HEPES, pH 9.0 buffer to ˜pH 7.0. […] All post-load wash, elution and cleaning steps were performed at a flow rate of 0.42 ml/minute (150 cm/hour). Total mg IgG bound was determined by measuring the absorbance at 280 nm of the elution fraction calculated using an extinction coefficicent of 1.4. Initial (T=0, prior to initiating column cycling) total dynamic capacity measured 19.8 mg human IgG per ml affinity resin. […] Mass balance recovery for these 5 total capacity determinations averaged 98%. […] The column retained approximately 90% relative performance with respect to total dynamic capacity after 95 cycles.

Monomer in the eluted fraction (human IgG1): 98% | Monomer in the eluted fraction (IgG4 [1]): 99.5%
Compound: CC[C@H](C)[C@@H]1NC(=O)[C@H](CC(C)C)NC(=O)[C@H](CCC(=O)O)NC(=O)CNC(=O)[C@H](Cc2c[nH]c3ccccc23)NC(=O)[C@H]([C@@H](C)O)NC(=O)[C@H]([C@@H](C)O)NC(=O)[C@H](Cc2ccc(O)cc2)NC(=O)[C@H](C(C)C)NC(=O)[C@@H](NC(=O)[C@H](CCSC)NC(=O)[C@H](Cc2c[nH]cn2)NC(=O)[C@H](CC(=O)O)NC(=O)[C@H](CC(=O)O)NC(=O)CNC(C)=O)CSSC[C@@H](C(=O)N[C@@H](CC(=O)O)C(=O)N[C@@H](CC(N)=O)C(=O)N[C@@H](Cc2c[nH]cn2)C(=O)N[C@@H](CCC(=O)O)C(=O)N2CCC[C@H]2C(=O)NCC(=O)N2CCC[C@H]2C(=O)N[C@@H](CCC(=O)O)C(=O)NCC(=O)NCC(=O)NCC(=O)N[C@@H](CCCCN)C(N)=O)NC(=O)[C@H](Cc2c[nH]c3ccccc23)NC1=O [DX249] (Ac-GDDHMCVYTTWGELIWCDNHEPGPEGGGK-NH2; disulfide 6-17)

Capture efficiency, IgG1 (hIgG1): 80% | Competition between labeled peptide and Protein A, IgG4 (IgG4 [2]): NB
Compound: CC(=O)NCC(=O)N[C@@H](CC(=O)O)C(=O)N[C@@H](CC(=O)O)C(=O)N[C@@H](CC(=O)O)C(=O)N[C@@H](Cc1c[nH]cn1)C(=O)N[C@H]1CSSC[C@@H](C(=O)N2CCC[C@H]2C(=O)N[C@@H](Cc2c[nH]cn2)C(=O)NCC(=O)N[C@@H](CCC(=O)O)C(=O)N2CCC[C@H]2C(=O)NCC(=O)N2CCC[C@H]2C(=O)N[C@@H](CCC(=O)O)C(=O)NCC(=O)NCC(=O)NCC(=O)N[C@@H](CCCCN)C(N)=O)NC(=O)[C@H](CCC(=O)O)NC(=O)[C@H](CO)NC(=O)[C@H](CC(N)=O)NC(=O)[C@H](Cc2ccccc2)NC(=O)[C@H](Cc2c[nH]c3ccccc23)NC(=O)[C@H](CCC(=O)O)NC(=O)[C@H](CCCNC(=N)N)NC(=O)[C@H](Cc2ccccc2)NC(=O)[C@H](Cc2c[nH]c3ccccc23)NC(=O)[C@H](Cc2ccc(O)cc2)NC1=O [DX252] (Ac-GDDDHCYWFREWFNSECPHGEPGPEGGGK-NH2; disulfide 6-17 (inferred))

Initial total dynamic capacity (polyclonal human IgG; T=0, ligand density 2.9 μmole/ml): 19.8 mg human IgG per ml affinity resin | % Relative Performance (total capacity vs T=0, 19.8 mg/ml) (polyclonal human IgG; Total Capacity Cycle Run No. 0): 100% | % Relative Performance (total capacity vs T=0, 19.8 mg/ml) (polyclonal human IgG; Total Capacity Cycle Run No. 26): 93.9% | % Relative Performance (total capacity vs T=0, 19.8 mg/ml) (polyclonal human IgG; Total Capacity Cycle Run No. 66): 85.9% | % Relative Performance (total capacity vs T=0, 19.8 mg/ml) (polyclonal human IgG; Total Capacity Cycle Run No. 86): 91.4% | % Relative Performance (total capacity vs T=0, 19.8 mg/ml) (polyclonal human IgG; Total Capacity Cycle Run No. 96): 87.9% | Relative performance with respect to total dynamic capacity (polyclonal human IgG; after 95 cycles): approximately 90%
Compound: Ac-GDRRACSRDWSGALVWCAGHEPGPEGGGK-NH2 (not fully specified (bridges); printed as Ac-GDRRACSRDWSGALVWCAGHEPGPEGGGK-NH2; cysteine pairing not given here) [DX253]
